Experimental data from article PMC9652372, “Glycolytic flux control by drugging phosphoglycolate phosphatase” (Nature Communications, 2022).
Positions count from the first letter of the chain named. Several values for one entry are separate records, joined by “and”; a condition that tells them apart may be missing. Identical values can stand only once. Entries after “also recorded” stand apart in the source; their conditions may differ.

Assays:
[1] = target: T1, murine PGP (Mus musculus, UniProt Q8CHP8); test: IC50 determination, murine PGP, 2-phospho-L-lactate (2PL) dephosphorylation; conditions: for M.m PGP on 2- Phospho-L-lactate: activity, control = 100
T1 sequence (Q8CHP8 1-321): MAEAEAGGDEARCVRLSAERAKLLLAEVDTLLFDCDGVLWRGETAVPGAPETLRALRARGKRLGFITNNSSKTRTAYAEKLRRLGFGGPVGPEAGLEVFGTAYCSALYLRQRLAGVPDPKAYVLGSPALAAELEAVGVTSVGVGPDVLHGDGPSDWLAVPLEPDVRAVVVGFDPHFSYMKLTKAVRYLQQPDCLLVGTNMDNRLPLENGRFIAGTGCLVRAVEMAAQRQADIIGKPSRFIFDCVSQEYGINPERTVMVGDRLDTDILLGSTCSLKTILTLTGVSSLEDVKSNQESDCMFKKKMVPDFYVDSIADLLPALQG

[2] = system: HT1080 cells; test: Lipid droplet staining (perilipin-3); assay type: cell-based, human
Procedure: Cells were fixed for 15 min with 4% para-formaldehyde, permeabilized and blocked with 0.2% saponin/2% bovine serum albumin (BSA) for 1 hr, and immunostained for 1 hr using α-rabbit TIP47/perilipin 3 antibodies (1:100 dilution, abcam #47638) in 0.2% saponin/1% BSA. Primary antibodies were detected with Alexa Fluor 488-labeled goat anti-rabbit secondary antibodies (1:400; Molecular Probes/Thermo Fisher Scientific), and nuclei were counterstained with DAPI. Cells were mounted with Immu-Mount (Fisher Scientific), and imaged by fluorescence microscopy on a THUNDER imager (THUNDER Imager Live Cell & 3D Cell Culture & 3D Assay system, Leica DMI8; Leica Microsystems), using a 63 × objective and the Leica Application suite X software 3.7.4.23463. To determine the number of lipid droplets per cell, cell borders were defined semi-automatically, and bright objects in this region of interest were counted using the ImagePro-Plus software version 7.0. Statistical significance was assessed using GraphPad Prism 9.4.1 software.

[3] = target: T2, PGP^S71R (Mus musculus, UniProt Q8CHP8, S71R); conditions: read-out: enzyme activity in presence of CP1 relative to DMSO control (1), mPGP-S71R, Exp #1-#3
T2 sequence (Q8CHP8 1-321 S71R): T1 sequence (Q8CHP8 1-321) with S71R

[4] = system: HT1080 cells; test: Cell proliferation assay (EdU incorporation); assay type: cell-based, human
Procedure: Parental HT1080 cells or the indicated CRISPR/Cas9-engineered control (PGP-WT) or PGP-KO cells were grown in complete DMEM. For the expression of PGP-WT or PGP-P127E, cells were transfected with either the pcDNA3 empty vector control or the indicated constructs in pcDNA3 using X-tremeGENE (Roche/Merck), according to the manufacturer’s instructions. […] To assess DNA synthesis, cells were labeled for 2.5 h with 10 μM 5-ethynyl-2'-deoxyuridine (EdU), fixed and permeabilized according to the manufacturer’s recommendations (Click-iT EdU Alexa Fluor 488 imaging kit, Invitrogen/Thermo Fisher). Cells were counterstained with 4′,6-diamidine-2-phenylindole (DAPI), embedded with Fluoromount-G (Thermo Fisher), and imaged on a Nikon TE Eclipse epifluorescence microscope equipped with a 4 × objective and NIS elements software AR 5.02.00. EdU and/or DAPI-positive cells were analyzed using the ImagePro-Plus software version 7.0 (Media Cybernetics). Statistical significance was assessed using GraphPad Prism 9.4.1 software.

[5] = target: T3, murine PGP^C297S (Mus musculus, UniProt Q8CHP8, C297S); test: IC50 determination, PGP^C297S, PG dephosphorylation; assay type: biochemical
T3 construct: His6 (N, cleaved yes); made in house; host or cells: Escherichia coli BL21 (DE3)
T3 sequence (Q8CHP8 1-321 C297S): T1 sequence (Q8CHP8 1-321) with C297S
Procedure: . […] Data were analyzed with GraphPad Prism 7.04.
Supplementary Figure 3 (related to Figure 2): Characterization of the homodimeric PGP variant PGPC297S. (a) In vitro phosphatase activity of purified murine PGPC297S in comparison to purified murine PGPWT, using 2- phosphoglycolate (PG) as substrate. (b) Determ ination of […]
CP1. PG dephosphorylation was quantified using malachite green. All data in (a) and (b) are mean values ± S.E.M of n=3 independent experiments. Error bars not shown are hidden by the symbols. (c) PGP self-association in the absence or presence of CP1. Size- exclusion chromatography (SEC) of purified, recombinant murine PGP-WT in comparison to PGP-C297 […]
(1 picture or pasted object on this page, not shown here)

O=C(Nc1ccccc1C(=O)O)c1ccc(Oc2ccc(C(=O)Nc3ccccc3C(=O)O)cc2)cc1 [CP1] was tested, and the IC50 [1] was 310 ± 30 nM, the “M.m PGP on 2- Phospho-L-lactate” value ([1]; CP1 log[M] -5.04576) was 4.1667 and 4.9853 and 5.6548 and the “M.m PGP on 2- Phospho-L-lactate” value ([1]; CP1 log[M] -5.52288) was 7.7778 and 8.7977 and 9.2262. The “M.m PGP on 2- Phospho-L-lactate” value ([1]; CP1 log[M] -6) was 23.0556 and 24.9267 and 23.8095, the “M.m PGP on 2- Phospho-L-lactate” value ([1]; CP1 log[M] -6.47712) was 45.5556 and 51.3196 and 45.8333 and the “M.m PGP on 2- Phospho-L-lactate” value ([1]; CP1 log[M] -6.95424) was 73.3333 and 81.2317 and 78.869. For the same compound, the “M.m PGP on 2- Phospho-L-lactate” value ([1]; CP1 log[M] -7.43136) was 88.6111 and 95.3079 and 85.7143, the “M.m PGP on 2- Phospho-L-lactate” value ([1]; CP1 log[M] -7.90849) was 96.3889 and 100.293 and 92.8571 and the “lipid droplet (LD) accumulation” value [2] was “time- and concentration-dependent accumulation of LDs; also recorded: effectively increased LDs in PGP-WT but not in PGP-KO cells”. The remaining activity at 39.81 µM ([3]; CP1 log[M] -4.40) was 25%, the remaining activity at 19.95 µM ([3]; CP1 log[M] -4.70) was 38% and the remaining activity at 10 µM ([3]; CP1 log[M] -5.00) was 50%. The remaining activity at 5.012 µM ([3]; CP1 log[M] -5.30) was 68%, the remaining activity at 2.512 µM ([3]; CP1 log[M] -5.60) was 81% and the remaining activity at 0.631 µM ([3]; CP1 log[M] -6.20) was 95%. For the same compound, the remaining activity at […] ([3]; CP1 log[M] -6.51) was 100%, the remaining activity at 0.1549 µM ([3]; CP1 log[M] -6.81) was 92% and the Edu-positive/DAPI-positive cells ([4]; KO C2 CP1 (S)) was 47.70% and 42.53% and 47.97%. The Edu-positive/DAPI-positive cells ([4]; WT D5 CP1 (S)) was 47.76% and 46.38% and 44.69%, the Edu-positive/DAPI-positive cells ([4]; WT D5 EV CP1 (L)) was 8.23% and 14.09% and 6.30% and the IC50 ([5]; PGP^C297S, substrate PG) was about 250 nM. It also gave a remaining activity at […] ([5]; read-out: PGP-C297S activity in presence of CP1 relative to DMSO control, CP1 log[M] -5.60206) of 6.31%, a remaining activity at 1.25 µM ([5]; read-out: PGP-C297S activity in presence of CP1 relative to DMSO control, CP1 log[M] -5.90309) of 12.6% and a remaining activity at 0.3125 µM ([5]; read-out: PGP-C297S activity in presence of CP1 relative to DMSO control, CP1 log[M] -6.50515) of 44.1%. It also gave a remaining activity at 0.15625 µM ([5]; read-out: PGP-C297S activity in presence of CP1 relative to DMSO control, CP1 log[M] -6.80618) of 56.8%, a remaining activity at 0.078125 µM ([5]; read-out: PGP-C297S activity in presence of CP1 relative to DMSO control, CP1 log[M] -7.10721) of 72.1% and a remaining activity at 0.03906 µM ([5]; read-out: PGP-C297S activity in presence of CP1 relative to DMSO control, CP1 log[M] -7.40824) of 75.7%. The remaining activity at 0.01953 µM ([5]; read-out: PGP-C297S activity in presence of CP1 relative to DMSO control, CP1 log[M] -7.70927) was 90.1%.
